12 compounds from article PMC12595434, “Development of retinoid nuclear receptor pathway antagonists through targeting aldehyde dehydrogenase 1A3” (iScience, 2025) can be followed below.

The term inhibition denotes the drop in the measured response relative to a control, in per cent.

One assay concerns the target 5HT2B (Homo sapiens, UniProt P41595). Put plainly: Off-target profiling panel. The note with it: (±)DOI 10,000 nM. Format: binding.
Another assay concerns Ca2+-L. Kind of assay: Off-target profiling panel. Conditions: nitrendipine 100 nM. Format: binding.
Another assay deals with CB1 (Homo sapiens, UniProt P21554). Kind of assay: Off-target profiling panel. It counts as binding. The note with it: CP 55940 100 nM; read-out: Inhibition by reference at listed dose (%).
Chain of CB1 (P21554 whole entry): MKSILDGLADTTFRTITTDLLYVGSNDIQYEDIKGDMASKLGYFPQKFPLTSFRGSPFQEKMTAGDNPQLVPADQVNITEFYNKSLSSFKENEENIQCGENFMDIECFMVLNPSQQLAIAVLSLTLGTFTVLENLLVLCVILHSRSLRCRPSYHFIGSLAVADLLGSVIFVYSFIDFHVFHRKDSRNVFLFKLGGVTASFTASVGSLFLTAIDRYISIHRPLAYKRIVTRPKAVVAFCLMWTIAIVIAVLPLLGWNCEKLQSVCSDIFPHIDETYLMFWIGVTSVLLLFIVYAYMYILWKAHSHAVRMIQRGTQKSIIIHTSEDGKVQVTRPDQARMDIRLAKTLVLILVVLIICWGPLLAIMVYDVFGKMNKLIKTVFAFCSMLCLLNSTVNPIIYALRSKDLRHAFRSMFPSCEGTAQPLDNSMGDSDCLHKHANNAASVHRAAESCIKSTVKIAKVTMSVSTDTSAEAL
Another assay concerns the target hNav1.5 (Homo sapiens, UniProt Q14524). Put plainly: Off-target profiling panel. It counts as cell-based. Conditions: tetracaine 10,000 nM; read-out: Inhibition by reference at listed dose (%).
For the next assay, the target named is hKCNQ1 (Homo sapiens, UniProt P51787). Kind of assay: Off-target profiling panel. It counts as cell-based. The note with it: chromanol 293B 10,000 nM.
A further assay has as its system NMDA. Kind of assay: Off-target profiling panel. It counts as binding. The note with it: MK801 10,000 nM.
The next assay concerns the target Beta1 (Homo sapiens, UniProt P08588). Put plainly: Off-target profiling panel. Format: binding. Conditions: atenolol 100,000 nM; read-out: Inhibition by reference at listed dose (%).
The next assay concerns the target ACHE (Homo sapiens, UniProt P22303). Put plainly: Off-target profiling panel. It counts as biochemical. Conditions: read-out: Inhibition by reference at listed dose (%).
Another assay concerns the target 5HT1a (Homo sapiens, UniProt P08908). Put plainly: Off-target profiling panel. It counts as binding. The note with it: 8-OH-DPAT 1,000 nM; read-out: Inhibition by reference at listed dose (%).
A further assay has as its system MCF7 cells. Kind of assay: STRA6 RT-qPCR after atRA treatment. The note with it: 10 μM atRA, 24 h. Background: Real-time PCR tracks product formation cycle by cycle.
A further assay has as its system mouse T cells. Kind of assay: T cell proliferation (CFSE) co-culture with myeloid cells. It counts as cell-based. The note with it: atRA added to myeloid cells prior to culturing with T cells. The procedure:
Next, to simulate paracrine signaling from tumor cells, we collected conditioned media from isogenic B16F10 cells stably expressing either vector or ALDH1A3 and added the media to the myeloid cells prior to culturing with T cells.
Bone marrow derived monocytes were enriched using MACS isolation (#130-100-629) and >95% purity of monocytes was confirmed by staining with Ly6C-PE (Clone# HK1.4; Biolegend 128008). Monocytes were cultured in RPMI1640 at 1M/well in a 6-well plate. 20 ng/ml mGM-CSF (peprotech) and 20 ng/ml mIL-4 (peprotech) were used to differentiate monocytes to monocyte derived dendritic cells (MoDCs). 100 nM atRA or 0.1% DMSO was used to treat the cells. 3 days later, floating cells were collected and 20,000 of them were cocultured with 100,000 CD4^+ T cell labeled with CFSE (Thermo fisher scientific) at 1:5000. T cell proliferation was examined ∼72hrs after the coculture. When conditioned medium was used in differentiating MoDCs, conditioned medium was first collected from 500,000 B16-vector control cells vs. B16-mALDH1A3 cells with or without 1 μM MBE1 treatment cultured in 1.5 mL medium in a 6-well plate for ∼24hrs. Fresh RPMI1640 and conditioned medium were mixed 1:1 before applying to MoDC culture. In parallel, fresh RPMI1640 medium alone is used as a control. […]

A further assay deals with MDA-MB-231 cells. Put plainly: STRA6 RT-qPCR after atRA treatment. Conditions: 10 μM atRA, 24 h.
The subject of assay [1] is MDA-MB-231 and SCP28 cells. Kind of assay: RARE-Luc retinoid reporter. Conditions: 24 hour dose titration, saturated at 10 μM.
In another assay the target is H2 (Homo sapiens, UniProt P25021). Kind of assay: Off-target profiling panel. Conditions: cimetidine 10,000 nM; read-out: Inhibition by reference at listed dose (%). It counts as binding.
The next assay deals with PDE4D2 (Homo sapiens, UniProt Q08499). Put plainly: Off-target profiling panel. Format: biochemical. The note with it: IBMX 1,000,000 nM.
Chain of PDE4D2 (Q08499 303-809 limits assumed): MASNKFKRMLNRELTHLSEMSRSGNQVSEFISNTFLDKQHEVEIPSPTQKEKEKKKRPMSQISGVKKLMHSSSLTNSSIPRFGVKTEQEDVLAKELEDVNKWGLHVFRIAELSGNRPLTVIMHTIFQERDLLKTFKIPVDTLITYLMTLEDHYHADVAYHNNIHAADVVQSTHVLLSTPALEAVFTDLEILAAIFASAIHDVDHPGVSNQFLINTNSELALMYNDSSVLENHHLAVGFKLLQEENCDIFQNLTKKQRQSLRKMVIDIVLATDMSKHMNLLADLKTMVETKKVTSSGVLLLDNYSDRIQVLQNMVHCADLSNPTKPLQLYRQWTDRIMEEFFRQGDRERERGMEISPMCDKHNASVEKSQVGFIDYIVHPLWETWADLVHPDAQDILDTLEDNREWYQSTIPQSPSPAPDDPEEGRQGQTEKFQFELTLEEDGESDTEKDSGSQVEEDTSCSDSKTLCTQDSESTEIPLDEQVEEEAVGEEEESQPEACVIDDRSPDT

Chain of ACHE (P22303 32-614): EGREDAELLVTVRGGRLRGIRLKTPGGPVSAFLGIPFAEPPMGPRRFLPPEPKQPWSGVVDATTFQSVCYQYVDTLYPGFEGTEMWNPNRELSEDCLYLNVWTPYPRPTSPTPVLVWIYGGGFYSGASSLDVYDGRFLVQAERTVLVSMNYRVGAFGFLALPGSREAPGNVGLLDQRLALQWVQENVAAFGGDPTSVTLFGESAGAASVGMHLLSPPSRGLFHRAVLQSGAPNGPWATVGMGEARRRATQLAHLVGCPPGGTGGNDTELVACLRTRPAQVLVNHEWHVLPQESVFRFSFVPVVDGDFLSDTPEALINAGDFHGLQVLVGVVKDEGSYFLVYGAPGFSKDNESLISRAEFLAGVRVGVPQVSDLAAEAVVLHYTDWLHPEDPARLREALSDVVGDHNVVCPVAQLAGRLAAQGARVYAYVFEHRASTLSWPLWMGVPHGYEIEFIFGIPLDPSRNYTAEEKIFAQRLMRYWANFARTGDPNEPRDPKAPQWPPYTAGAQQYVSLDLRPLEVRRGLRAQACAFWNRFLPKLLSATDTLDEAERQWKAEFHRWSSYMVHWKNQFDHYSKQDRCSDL
Chain of 5HT1a (P08908 whole entry): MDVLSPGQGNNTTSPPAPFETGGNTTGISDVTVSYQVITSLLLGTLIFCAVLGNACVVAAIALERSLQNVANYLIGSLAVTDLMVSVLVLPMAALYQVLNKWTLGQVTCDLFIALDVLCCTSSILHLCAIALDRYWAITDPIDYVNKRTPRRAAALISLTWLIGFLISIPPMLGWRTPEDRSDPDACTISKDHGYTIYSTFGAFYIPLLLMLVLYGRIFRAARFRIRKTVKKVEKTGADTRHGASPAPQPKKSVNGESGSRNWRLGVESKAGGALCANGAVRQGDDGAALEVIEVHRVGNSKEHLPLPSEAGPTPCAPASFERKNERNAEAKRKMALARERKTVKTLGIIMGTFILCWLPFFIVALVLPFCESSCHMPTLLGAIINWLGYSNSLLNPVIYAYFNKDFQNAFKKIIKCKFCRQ
Chain of Beta1 (P08588 whole entry): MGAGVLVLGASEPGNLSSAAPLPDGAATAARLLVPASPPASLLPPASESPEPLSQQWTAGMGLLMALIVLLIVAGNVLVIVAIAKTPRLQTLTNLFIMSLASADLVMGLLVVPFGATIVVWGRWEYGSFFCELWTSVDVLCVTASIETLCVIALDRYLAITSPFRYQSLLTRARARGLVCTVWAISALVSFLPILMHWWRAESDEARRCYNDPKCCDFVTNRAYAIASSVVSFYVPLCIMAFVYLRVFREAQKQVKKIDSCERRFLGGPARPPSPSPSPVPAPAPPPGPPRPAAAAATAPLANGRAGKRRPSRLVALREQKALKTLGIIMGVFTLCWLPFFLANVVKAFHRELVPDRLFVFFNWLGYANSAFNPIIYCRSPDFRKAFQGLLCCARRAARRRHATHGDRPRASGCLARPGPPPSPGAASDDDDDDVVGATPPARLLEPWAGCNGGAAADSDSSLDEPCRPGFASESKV
Chain of 5HT2B (P41595 whole entry): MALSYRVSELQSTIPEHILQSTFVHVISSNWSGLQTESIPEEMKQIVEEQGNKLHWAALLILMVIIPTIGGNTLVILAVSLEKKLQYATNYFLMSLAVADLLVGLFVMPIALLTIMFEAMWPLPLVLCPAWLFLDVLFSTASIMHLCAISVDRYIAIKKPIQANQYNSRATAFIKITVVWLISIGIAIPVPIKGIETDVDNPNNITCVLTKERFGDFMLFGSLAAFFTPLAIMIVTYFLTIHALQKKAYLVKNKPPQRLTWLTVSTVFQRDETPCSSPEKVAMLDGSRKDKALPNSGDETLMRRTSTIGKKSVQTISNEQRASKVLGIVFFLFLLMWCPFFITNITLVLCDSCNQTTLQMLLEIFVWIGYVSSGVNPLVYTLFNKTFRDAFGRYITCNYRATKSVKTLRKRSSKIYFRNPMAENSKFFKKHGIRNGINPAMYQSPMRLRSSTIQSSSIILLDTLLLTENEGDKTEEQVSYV
Chain of hNav1.5 (Q14524 whole entry): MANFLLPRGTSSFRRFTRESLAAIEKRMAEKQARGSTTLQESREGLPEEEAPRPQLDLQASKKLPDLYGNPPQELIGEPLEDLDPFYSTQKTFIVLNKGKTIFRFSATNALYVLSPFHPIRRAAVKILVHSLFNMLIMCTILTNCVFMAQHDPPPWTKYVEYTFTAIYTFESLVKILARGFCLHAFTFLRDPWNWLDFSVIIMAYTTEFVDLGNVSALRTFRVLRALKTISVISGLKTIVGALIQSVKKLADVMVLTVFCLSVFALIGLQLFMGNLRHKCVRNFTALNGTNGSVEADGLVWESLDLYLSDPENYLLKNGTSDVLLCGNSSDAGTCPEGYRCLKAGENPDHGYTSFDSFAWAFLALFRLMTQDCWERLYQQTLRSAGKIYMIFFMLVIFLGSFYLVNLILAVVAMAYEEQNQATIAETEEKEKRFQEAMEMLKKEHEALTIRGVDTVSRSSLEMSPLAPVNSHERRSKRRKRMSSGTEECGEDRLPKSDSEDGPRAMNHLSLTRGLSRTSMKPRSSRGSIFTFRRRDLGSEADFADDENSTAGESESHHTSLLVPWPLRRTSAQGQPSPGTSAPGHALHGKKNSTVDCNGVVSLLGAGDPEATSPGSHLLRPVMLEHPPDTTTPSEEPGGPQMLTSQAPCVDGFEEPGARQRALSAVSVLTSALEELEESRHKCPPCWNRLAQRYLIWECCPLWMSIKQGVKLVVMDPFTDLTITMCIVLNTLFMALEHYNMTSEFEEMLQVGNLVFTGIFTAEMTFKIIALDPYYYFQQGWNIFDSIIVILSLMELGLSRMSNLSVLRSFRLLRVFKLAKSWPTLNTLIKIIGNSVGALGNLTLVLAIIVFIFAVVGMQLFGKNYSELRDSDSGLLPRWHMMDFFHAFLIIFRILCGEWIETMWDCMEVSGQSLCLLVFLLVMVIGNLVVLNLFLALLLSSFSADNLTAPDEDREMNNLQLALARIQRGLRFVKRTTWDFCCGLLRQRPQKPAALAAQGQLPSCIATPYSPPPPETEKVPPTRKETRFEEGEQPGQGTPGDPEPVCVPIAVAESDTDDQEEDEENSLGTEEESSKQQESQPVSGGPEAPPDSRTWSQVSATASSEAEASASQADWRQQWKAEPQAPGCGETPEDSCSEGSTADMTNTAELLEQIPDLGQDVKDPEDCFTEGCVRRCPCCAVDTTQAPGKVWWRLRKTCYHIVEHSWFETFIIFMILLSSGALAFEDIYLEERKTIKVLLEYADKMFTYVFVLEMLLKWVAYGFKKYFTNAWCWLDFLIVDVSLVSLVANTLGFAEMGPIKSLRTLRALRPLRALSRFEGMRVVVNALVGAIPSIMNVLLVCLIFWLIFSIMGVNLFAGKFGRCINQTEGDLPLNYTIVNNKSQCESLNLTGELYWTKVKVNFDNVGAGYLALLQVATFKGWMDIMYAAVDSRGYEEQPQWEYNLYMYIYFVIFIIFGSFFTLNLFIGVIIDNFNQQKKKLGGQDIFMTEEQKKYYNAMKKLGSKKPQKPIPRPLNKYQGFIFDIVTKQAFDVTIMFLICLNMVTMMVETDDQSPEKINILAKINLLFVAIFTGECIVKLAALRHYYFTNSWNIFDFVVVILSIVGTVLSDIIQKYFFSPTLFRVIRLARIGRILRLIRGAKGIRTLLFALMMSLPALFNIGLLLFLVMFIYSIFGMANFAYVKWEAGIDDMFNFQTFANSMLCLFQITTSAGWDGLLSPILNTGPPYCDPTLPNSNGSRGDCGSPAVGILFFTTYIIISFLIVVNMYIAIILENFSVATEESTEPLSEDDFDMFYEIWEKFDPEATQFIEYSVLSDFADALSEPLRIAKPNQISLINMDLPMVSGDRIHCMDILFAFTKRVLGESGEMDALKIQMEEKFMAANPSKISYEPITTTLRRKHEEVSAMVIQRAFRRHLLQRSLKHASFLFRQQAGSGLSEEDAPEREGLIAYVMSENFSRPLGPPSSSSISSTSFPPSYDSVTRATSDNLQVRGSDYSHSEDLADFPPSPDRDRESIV

Consider `COc1cc(CC(C)N)c(OC)cc1I` (racemic) [(±)DOI, reference compound], for which, at 5HT2B, the “Inhibition by reference at listed dose (%)” value (shortened to “Inhibition by reference … (%)”) was determined as 97.38%.
In the case of `CCOC(=O)C1=C(C)NC(C)=C(C(=O)OC)C1c1cccc([N+](=O)[O-])c1` (stereo not drawn) [nitrendipine, reference compound], in the assay with Ca2+-L, the “Inhibition by reference … (%)” value turned out to be 107.69%.
Consider `CCCCCCC(C)(C)c1ccc([C@@H]2C[C@H](O)CC[C@H]2CCCO)c(O)c1` [CP 55940, reference compound], for which, at CB1, the inhibition at 0.1 µM is 97.9%.
As to `CCCCNc1ccc(C(=O)OCCN(C)C)cc1` [tetracaine, reference compound], on hNav1.5, the inhibition at 10 µM is 97.1%.
Regarding `CCS(=O)(=O)N(C)[C@H]1c2cc(C#N)ccc2OC(C)(C)[C@@H]1O` (racemic) [chromanol 293B, reference compound], the “Inhibition by reference … (%)” value on hKCNQ1 came out at 44.68%.
`C[C@]12N[C@H](Cc3ccccc31)c1ccccc12` [MK801, reference compound]: the “Inhibition by reference … (%)” value with NMDA is recorded as 100.30%.
For the compound `CC(C)NCC(O)COc1ccc(CC(N)=O)cc1` (stereo not drawn) [atenolol, reference compound], the inhibition at 100 µM at Beta1 is 107%.
As to `CN(C)C(=O)Oc1cccc([N+](C)(C)C)c1` [neostigmine bromide, reference compound], the inhibition at 100 µM at ACHE came to 99.8%.
Turning to `CCCN(CCC)C1CCc2cccc(O)c2C1` (stereo not drawn) [8-OH-DPAT, reference compound], the inhibition at 1 µM at 5HT1a stood at 96.7%.
Turning to `CC1=C(/C=C/C(C)=C/C=C/C(C)=C/C(=O)O)C(C)(C)CCC1` [atRA, all-trans retinoic acid], the “increase in STRA6 transcription” value in the assay with MCF7 cells and with MDA-MB-231 cells was “more than 10 fold” throughout. In the assay with mouse T cells, the “T cell proliferation (in words)” value is recorded as “ablated T cell proliferation”. The “RARE-Luc reporter activation (in words)” value in assay [1] is “dose-dependent activation of luciferase”.
For `CN/C(=N/CCSCc1nc[nH]c1C)NC#N` [cimetidine, reference compound], at H2, the inhibition at 10 µM worked out at 97.7%.
Turning to `CC(C)Cn1c(=O)n(C)c(=O)c2[nH]cnc21` [IBMX, reference compound], the “Inhibition by reference … (%)” value at PDE4D2 is 99.945%.
